Assay results published in the supplement of paper PMC10307832.

Tests used:
Assay in all cases: relative viability (nuclei count vs DMSO), 5 days (fraction); higher = more cells survive
[1] = compound: Cn1nnc2c(C(N)=O)ncn2c1=O [Temozolomide] + CC1(C)CCC(c2ccc(Cl)cc2)=C(CN2CCN(c3ccc(C(=O)NS(=O)(=O)c4ccc(N[C@H](CCN5CCOCC5)CSc5ccccc5)c(S(=O)(=O)C(F)(F)F)c4)cc3)CC2)C1 [Navitoclax] (partner 0.5 µM)
Outline: (§1)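 Lung cancer cell lines in 1536-well plates got either a single drug or a fixed anchor-drug dose together with five library-drug doses (not always all listed) in √10 steps, by pin tool, on the day after seeding. Nuclei were counted after 5 days, and relative viability is the treated-to-vehicle ratio of nuclei counts. Values are medians of duplicate plates.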

[2] = compound: Cn1nnc2c(C(N)=O)ncn2c1=O [Temozolomide] + CCNC(=O)c1noc(-c2cc(C(C)C)c(O)cc2O)c1-c1ccc(CN2CCOCC2)cc1 [Luminespib] (partner 0.01 µM)
Outline: as §1

Temozolomide + Dasatinib = compound: Cn1nnc2c(C(N)=O)ncn2c1=O [Temozolomide] + Cc1nc(Nc2ncc(C(=O)Nc3c(C)cccc3Cl)s2)cc(N2CCN(CCO)CC2)n1 [Dasatinib] (partner 0.075 µM)
Outline: as §1

Temozolomide + AZD7762 = compound: Cn1nnc2c(C(N)=O)ncn2c1=O [Temozolomide] + NC(=O)Nc1cc(-c2cccc(F)c2)sc1C(=O)N[C@H]1CCCNC1 [AZD7762] (partner 0.2 µM)
Outline: as §1

Cell Line	relative viability ([1]; first compound 0.2 µM)	relative viability ([1]; first compound 0.6325 µM)	relative viability ([1]; first compound 2 µM)	relative viability ([1]; first compound 6.325 µM)	relative viability ([1]; first compound 20 µM)	relative viability ([2]; first compound 0.2 µM)	relative viability ([2]; first compound 0.6325 µM)	relative viability ([2]; first compound 2 µM)	relative viability ([2]; first compound 6.325 µM)	relative viability ([2]; first compound 20 µM)	relative viability (Temozolomide + Dasatinib; first compound 0.6325 µM)	relative viability (Temozolomide + Dasatinib; first compound 2 µM)	relative viability (Temozolomide + Dasatinib; first compound 6.325 µM)	relative viability (Temozolomide + Dasatinib; first compound 20 µM)	relative viability (Temozolomide + AZD7762; first compound 0.6325 µM)	relative viability (Temozolomide + AZD7762; first compound 2 µM)	relative viability (Temozolomide + AZD7762; first compound 6.325 µM)	relative viability (Temozolomide + AZD7762; first compound 20 µM)	relative viability (Temozolomide + Dasatinib; first compound 0.2 µM)	relative viability (Temozolomide + AZD7762; first compound 0.2 µM)
EKVX	0.856	0.962	0.902	0.976	0.597	0.364	0.873	0.888	0.829	0.714	0.575	0.55	0.782	0.352	0.743	0.681	0.67	0.418	–	–
EMC-BAC-2	1.07	1.24	1.16	1.2	1.2	1.11	1.18	1.21	1.12	1.23	0.368	0.368	0.316	0.325	1.17	1.15	1.08	1.12	0.336	1.12
EPLC-272H	1.15	1.01	1.12	0.996	0.879	0.234	0.279	0.304	0.707	0.446	0.411	0.413	0.337	0.267	0.259	0.418	0.217	0.208	0.368	0.194
H3255	–	0.523	0.469	0.485	0.0789	–	0.991	0.946	0.868	0.28	0.406	0.283	0.263	0.202	0.839	0.878	0.808	0.257	–	–
HARA	1.19	1.17	1.24	1.13	1.2	0.681	0.801	0.835	0.788	0.697	0.301	0.309	0.29	0.23	0.322	0.299	0.395	0.305	0.238	0.358
HCC-15	0.746	0.731	0.805	0.687	0.689	0.347	0.356	0.314	0.218	0.271	0.699	0.625	0.627	0.642	1.18	1.29	1.32	1.4	0.74	1.53
HCC-44	0.972	1.02	0.913	0.966	0.983	0.634	1.05	1.12	0.897	0.966	–	–	–	–	1	1.03	1.11	1.05	–	1.03
HCC-78	0.48	0.738	0.953	0.836	0.793	–	–	–	–	–	0.456	0.418	0.391	0.365	0.568	0.899	–	0.566	0.363	0.668
HCC-366	1.07	1.18	1.14	1.17	0.918	–	–	–	–	–	0.688	0.655	0.682	0.652	0.258	0.376	0.311	0.338	0.661	0.286
